According to patent US12528815B2, “5-amino-8-(4-pyridyl)-[1,2,4]triazolo[4,3-c]pyrimidin-3-one compounds for use against cancer” (Nxera Pharma UK Limited, priority 2020, dated 2026):
Where two headings read alike, the source gives them in different places.

Assays:
[1] = target: T1, human adenosine A1 receptor (Homo sapiens, UniProt P30542); assay: Inhibition binding assay, human adenosine A1 receptor membranes, [3H]DPCPX; settings: 1 nM [3H]DPCPX, 25° C., 1 h; IC50 converted to Ki with Cheng-Prusoff; read-out: A1 pKi (converted)
T1 construct: expressed in transfected cells; host or cells: HEK293 cells infected with BacMam (the same paragraph also labels the preparation CHO-hA1)
T1 sequence (P30542 1-326): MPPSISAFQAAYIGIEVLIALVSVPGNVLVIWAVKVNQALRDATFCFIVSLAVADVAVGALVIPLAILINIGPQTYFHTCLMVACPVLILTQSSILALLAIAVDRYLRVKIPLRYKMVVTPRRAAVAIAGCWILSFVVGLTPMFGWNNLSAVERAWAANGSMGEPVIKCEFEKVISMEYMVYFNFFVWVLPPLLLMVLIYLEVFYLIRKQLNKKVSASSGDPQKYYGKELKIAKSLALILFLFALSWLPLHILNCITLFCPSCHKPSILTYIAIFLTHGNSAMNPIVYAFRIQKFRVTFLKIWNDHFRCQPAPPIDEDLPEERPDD
In short: (§1)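 Membranes from BacMam-infected HEK293 cells (0.2 μg A2A, 1.4 μg A1) incubated 1 h at 25° C with test compound and 1 nM [3H]ZM241385 (A2A; 50 mM Tris-HCl pH 7.4) or [3H]DPCPX (A1; plus 100 mM NaCl, 10 mM MgCl2). Nonspecific: 1 μM CGS15943 or DPCPX. Filtration, scintillation; IC50 converted to Ki via Cheng-Prusoff.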

[2] = target: T2, human adenosine A2A receptor (Homo sapiens, UniProt P29274); assay: Inhibition binding assay, human adenosine A2A receptor membranes, [3H]ZM241385; settings: 1 nM [3H]ZM241385, HEK293-hA2A membranes, 25° C., 1 h, IC50 converted to Ki with Cheng-Prusoff
T2 construct: expressed in transfected cells; host or cells: HEK293 cells infected with BacMam
T2 sequence (P29274 whole entry): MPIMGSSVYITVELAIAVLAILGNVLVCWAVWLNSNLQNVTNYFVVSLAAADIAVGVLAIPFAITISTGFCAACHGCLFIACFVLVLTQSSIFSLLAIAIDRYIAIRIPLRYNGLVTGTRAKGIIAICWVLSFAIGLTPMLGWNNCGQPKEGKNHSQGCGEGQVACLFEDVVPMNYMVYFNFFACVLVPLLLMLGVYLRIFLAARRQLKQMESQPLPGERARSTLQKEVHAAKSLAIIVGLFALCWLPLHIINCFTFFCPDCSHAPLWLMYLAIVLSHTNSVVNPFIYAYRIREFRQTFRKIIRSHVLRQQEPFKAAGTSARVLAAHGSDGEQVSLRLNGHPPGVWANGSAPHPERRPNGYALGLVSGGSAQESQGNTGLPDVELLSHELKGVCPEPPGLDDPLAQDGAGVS
In short: as §1

Compound	Ki [1] [nM]	Ki ([2]; read-out: A2A pKi (converted)) [nM]	Ki ([2]; A2A pKi) [nM]
Cc1cc(-c2c(-c3ccccc3)nc(N)n3c(=O)n(CC4CCCOC4)nc23)cc(C)n1 (centres unmarked) [Example 2-81, 5-amino-8-(2,6-dimethyl-4-pyridyl)-7-phenyl-2-(tetrahydropyran-3-ylmethyl)-[1,2,4]triazolo[4,3-c]pyrimidin-3-one]	316	0.501	
COc1cc(-c2c(-c3ccc(F)cc3)nc(N)n3c(=O)n(Cc4ccc(Cl)cn4)nc23)cc(CO)n1 [Example 1-68, 5-amino-2-[(5-chloro-2-pyridyl)methyl]-7-(4-fluorophenyl)-8-[2-(hydroxymethyl)-6-methoxy-4-pyridyl]-[1,2,4]triazolo[4,3-c]pyrimidin-3-one]	> 1580	1.26	
Cc1cc(-c2c(-c3ccccc3)nc(N)n3c(=O)n([C@H](C)c4ccncc4)nc23)cc(C)n1 [Example 1-26, (R)-5-amino-8-(2,6-dimethyl-4-pyridyl)-7-phenyl-2-[1-(4-pyridyl)ethyl]-[1,2,4]triazolo[4,3-c]pyrimidin-3-one]	794	15.8	
Cc1cc(-c2c(-c3ccccc3)nc(N)n3c(=O)n(C[C@@H]4CN(C(=O)OC(C)(C)C)CCO4)nc23)cc(C)n1 [Example 2-69, tert-butyl (2S)-2-[[5-amino-8-(2,6-dimethyl-4-pyridyl)-3-oxo-7-phenyl-[1,2,4]triazolo[4,3-c]pyrimidin-2-yl]methyl]morpholine-4-carboxylate]	398	6.31	
Cc1cc(-c2c(-c3ccccc3)nc(N)n3c(=O)n(Cc4ccc(O)nn4)nc23)cc(C)n1 [Example 1-37, 5-amino-8-(2,6-dimethyl-4-pyridyl)-2-[(6-hydroxypyridazin-3-yl)methyl]-7-phenyl-[1,2,4]triazolo[4,3-c]pyrimidin-3-one]	> 3160	63.1	
CCOc1ccccc1Cn1nc2c(-c3cc(C)nc(C)c3)c(-c3ccccc3)nc(N)n2c1=O [Example 1-25, 5-amino-8-(2,6-dimethyl-4-pyridyl)-2-[(2-ethoxyphenyl)methyl]-7-phenyl-[1,2,4]triazolo[4,3-c]pyrimidin-3-one]	6.31	0.2	
COc1cc(-c2c(-c3ccc(F)cc3)nc(N)n3c(=O)n(CCC(F)(F)F)nc23)cc(CO)n1 [Example 2-47, 5-amino-7-(4-fluorophenyl)-8-[2-(hydroxymethyl)-6-methoxy-4-pyridyl]-2-(3,3,3-trifluoropropyl)-[1,2,4]triazolo[4,3-c]pyrimidin-3-one]	> 3980	1.58	
COc1ccc(Cn2nc3c(-c4cc(C)nc(C)c4)c(-c4ccccc4)nc(N)n3c2=O)nn1 [Example 1-33, 5-amino-8-(2,6-dimethyl-4-pyridyl)-2-[(6-methoxypyridazin-3-yl)methyl]-7-phenyl-[1,2,4]triazolo[4,3-c]pyrimidin-3-one]	1000	25.1	
Cc1cc(-c2c(-c3ccccc3)nc(N)n3c(=O)n(CC45CC(C4)C5)nc23)cc(CO)n1 [Example 2-63, 5-amino-2-(3-bicyclo[1.1.1]pentanylmethyl)-8-[2-(hydroxymethyl)-6-methyl-4-pyridyl]-7-phenyl-[1,2,4]triazolo[4,3-c]pyrimidin-3-one]	316	1.26	
Cc1cc(-c2c(-c3ccccc3)nc(N)n3c(=O)n(C[C@@H]4CN(C)CCO4)nc23)cc(C)n1 [Example 2-72, 5-amino-8-(2,6-dimethyl-4-pyridyl)-2-[[(2S)-4-methylmorpholin-2-yl]methyl]-7-phenyl-[1,2,4]triazolo[4,3-c]pyrimidin-3-one]	631	15.8	
Cc1cc(-c2c(-c3ccccc3)nc(N)n3c(=O)n(CCc4ccc(F)cc4)nc23)cc(C)n1 [Example 1-83, 5-amino-8-(2,6-dimethyl-4-pyridyl)-2-[2-(4-fluorophenyl)ethyl]-7-phenyl-[1,2,4]triazolo[4,3-c]pyrimidin-3-one]	251	20	
Cc1cc(-c2c(-c3ccccc3)nc(N)n3c(=O)n(CC45C6C7C8C6C4C8C75)nc23)cc(CO)n1 (centres unmarked) [Example 2-62, 5-amino-2-(cuban-1-ylmethyl)-8-[2-(hydroxymethyl)-6-methyl-4-pyridyl]-7-phenyl-[1,2,4]triazolo[4,3-c]pyrimidin-3-one]	31.6	0.316	
Cc1cc(-c2c(-c3ccccc3)nc(N)n3c(=O)n(CC4CCN(C)CC4)nc23)cc(C)n1 [Example 2-78, 5-amino-8-(2,6-dimethyl-4-pyridyl)-2-[(1-methyl-4-piperidyl)methyl]-7-phenyl-[1,2,4]triazolo[4,3-c]pyrimidin-3-one]	> 3160	200	
Cc1cc(-c2c(-c3ccccc3)nc(N)n3c(=O)n(CCc4ccc(C(=O)O)cc4)nc23)cc(C)n1 [Example 1-85, 4-[2-[5-amino-8-(2,6-dimethyl-4-pyridyl)-3-oxo-7-phenyl-[1,2,4]triazolo[4,3-c]pyrimidin-2-yl]ethyl]benzoic acid]	> 3980	200	
Cc1cc(-c2c(-c3ccccc3)nc(N)n3c(=O)n(CCc4ccccc4)nc23)cc(Cl)n1 [Example 1-89, 5-amino-8-(2-chloro-6-methyl-4-pyridyl)-7-phenyl-2-(2-phenylethyl)-[1,2,4]triazolo[4,3-c]pyrimidin-3-one]	126	5.01	
COc1ccc(Cn2nc3c(-c4cc(C)nc(Cl)c4)c(-c4ccccc4)nc(N)n3c2=O)nc1 [Example 1-77, 5-amino-8-(2-chloro-6-methyl-4-pyridyl)-2-[(5-methoxy-2-pyridyl)methyl]-7-phenyl-[1,2,4]triazolo[4,3-c]pyrimidin-3-one]	200	0.398	
Cc1cc(-c2c(-c3ccccc3)nc(N)n3c(=O)n(CC(=O)N(C)C4CC4)nc23)cc(C)n1 [Example 2-28, 2-[5-amino-8-(2,6-dimethyl-4-pyridyl)-3-oxo-7-phenyl-[1,2,4]triazolo[4,3-c]pyrimidin-2-yl]-N-cyclopropyl-N-methyl-acetamide]	200	1.58	
Cc1cc(-c2c(-c3ccccc3)nc(N)n3c(=O)[nH]nc23)cc(C)n1 [Example 2-1, 5-amino-8-(2,6-dimethyl-4-pyridyl)-7-phenyl-2H-[1,2,4]triazolo[4,3-c]pyrimidin-3-one]	79.4	5.01	
Cc1cc(-c2c(-c3ccccc3)nc(N)n3c(=O)n(CC4CCN(C(=O)OC(C)(C)C)CC4)nc23)cc(C)n1 [Example 2-67, tert-butyl 4-[[5-amino-8-(2,6-dimethyl-4-pyridyl)-3-oxo-7-phenyl-[1,2,4]triazolo[4,3-c]pyrimidin-2-yl]methyl]piperidine-1-carboxylate]	1000	6.31	
Cc1cc(-c2c(-c3ccccc3)nc(N)n3c(=O)n(CCC(F)F)nc23)cc(C)n1 [Example 2-17, 5-amino-2-(3,3-difluoropropyl)-8-(2,6-dimethyl-4-pyridyl)-7-phenyl-[1,2,4]triazolo[4,3-c]pyrimidin-3-one]	1000	2	
Cc1cc(-c2c(-c3ccccc3)nc(N)n3c(=O)n(CC(CO)CO)nc23)cc(C)n1 [Example 2-24, 5-amino-8-(2,6-dimethyl-4-pyridyl)-2-[3-hydroxy-2-(hydroxymethyl)propyl]-7-phenyl-[1,2,4]triazolo[4,3-c]pyrimidin-3-one]	794	10	
Cc1cc(-c2c(-c3ccccc3)nc(N)n3c(=O)n(CCN4C5CCCC4CC5)nc23)cc(C)n1 [Example 2-103, 5-amino-2-[2-(8-azabicyclo[3.2.1]octan-8-yl)ethyl]-8-(2,6-dimethyl-4-pyridyl)-7-phenyl-[1,2,4]triazolo[4,3-c]pyrimidin-3-one]	1000		6.31
Cc1cc(-c2c(-c3ccccc3)nc(N)n3c(=O)n(C(C)Cc4ccccc4)nc23)cc(C)n1 (centres unmarked) [Example 1-81, 5-amino-8-(2,6-dimethyl-4-pyridyl)-2-(1-methyl-2-phenyl-ethyl)-7-phenyl-[1,2,4]triazolo[4,3-c]pyrimidin-3-one]	631	25.1	
Cc1cc(-c2c(-c3ccccc3)nc(N)n3c(=O)n(Cc4ccc(F)cn4)nc23)cc(N(C)C)n1 [Example 1-71, 5-amino-8-[2-(dimethylamino)-6-methyl-4-pyridyl]-2-[(5-fluoro-2-pyridyl)methyl]-7-phenyl-[1,2,4]triazolo[4,3-c]pyrimidin-3-one]	631	20	
CNC(=O)c1cc(NCCn2nc3c(-c4cc(C)nc(C)c4)c(-c4ccccc4)nc(N)n3c2=O)ccc1Cl [Example 1-91, 5-[2-[5-amino-8-(2,6-dimethyl-4-pyridyl)-3-oxo-7-phenyl-[1,2,4]triazolo[4,3-c]pyrimidin-2-yl]ethylamino]-2-chloro-N-methyl-benzamide]	1000	39.8	
